Measured values as given in patent publication US4146719A, “Piperazinyl derivatives of quinoline carboxylic acids” (priority 1977, dated 1979).
≈ marks a conversion by molar mass, not a printed value. Entries after “also recorded” stand apart in the source; their conditions may differ.

Key:
[1] = test system: Klebsiella pneumoniae IFO 3512; assay: Antibacterial activity in vitro, M.I.C., agar dilution streak method; type: cell-based; settings: Klebsiella pneumoniae, IFO3512; Gram -; read-out: M.I.C.
[2] = test system: gram-positive and gram-negative bacteria including Pseudomonas aeruginosa; assay: Antibacterial spectrum in vitro (summary in words); type: cell-based
[3] = test system: Neisseria perflava IID 856; assay: Antibacterial activity in vitro, M.I.C., agar dilution streak method; type: cell-based; settings: Neisseria perflava, IID856; Gram -; read-out: M.I.C.
[4] = test system: Escherichia coli NIHJ JC-2; assay: Preventive effect against ascending kidney infection in mice with Escherichia coli; type: in vivo, Escherichia coli; mice (ddY, female); settings: for effect against ascending kidney infection (in words): mice
Procedure: Ascending kidney infection was induced in female mice (strain: ddY, 6 weeks old, body weight: 22-26g), by instilling Escherlichia coli NIHJ JC-2 suspended in 0.04 ml of Tryptosoya broth (Nissan) into the urinary tract of mice anesthetized with sodium pentobarbital and by holding for 6 hours the mice in plastic tubes (diameter 25 mm) and clamping the outlet of urinary tract.
Each of these test material was orally administered 3 hours after inoculation. Mice were sacrificed 48 hours after inoculation. Kidneys were removed aseptically and bisected, and the two halves were pressed and streaked on agar plate containing Desoxycholate medium (Nissan). The therapeutic effect of each compound was evaluated from the absence of growth on the agar surface after 20 hours of incubation at 37° C.

chromosome of myelocytes = test system: chromosome of myelocytes; set-up: species or system rats; settings: rat, in vivo, po, 1000 mg/kg
[5] = test system: Salmonella enteritidis IID 604; assay: Antibacterial activity in vitro, M.I.C., agar dilution streak method; type: cell-based; settings: Salmonella enterica; Gram -; read-out: M.I.C.
[6] = test system: Escherichia coli NIHJ JC-2; assay: Influence of rat bile on antibacterial activity; type: cell-based; settings: bile of rats
Procedure: (§1) Nutrient agar was heated and melted. […] The diameter of the inhibition zone was measured.

[7] = Biliary excretion in rats after a single oral administration of 50 mg/kg; settings: rat, in vivo, po, 50 mg/kg
Sta. aureus ATCC 14775 = assay: Antibacterial activity in vitro, M.I.C., agar dilution streak method; type: cell-based, Staphylococcus aureus; settings: Staphylococcus aureus, ATCC14775; Gram +; read-out: M.I.C.
[8] = Concentrations in urine of rats after a single oral administration; type: in vivo; settings: rat; for concentration at 3 h: 0-3 hours; for concentration at 3 h / concentration at 6 h / concentration at 24 h / concentration at 27 h: mean ±S.E., read-out: Urinary level; for concentration at 6 h: 3-6 hours; for concentration at 24 h: 6-24 hours; for concentration at 27 h: 24-27 hours
Ps. aeruginosa IID 1210 = assay: Antibacterial activity in vitro, M.I.C., agar dilution streak method; type: cell-based, Pseudomonas aeruginosa; settings: Pseudomonas aeruginosa, IID1210; Gram -; read-out: M.I.C.
[9] = test system: Pseudomonas aeruginosa V-1; assay: as above; type: cell-based; settings: Pseudomonas aeruginosa, V1; Gram -; read-out: M.I.C.
Escherichia coli NIHJ = assay: as above; type: cell-based; settings: Escherichia coli; Gram -; read-out: M.I.C.
[10] = test system: Mycobacterium phlei IFO 3142; assay: as above; type: cell-based; settings: Mycolicibacterium phlei, IFO3142; Gram +; read-out: M.I.C.
[11] = test system: Streptococcus pyogenes IID 692; assay: as above; type: cell-based; settings: Streptococcus pyogenes, IID692; Gram +; read-out: M.I.C.
[12] = test system: Bacillus subtilis PCI 219; assay: as above; type: cell-based; settings: Bacillus subtilis, PCI219; Gram +; read-out: M.I.C.
[13] = test system: Corynebacterium pyogenes IID 548; assay: as above; type: cell-based; settings: Corynebacterium pyogenes, IID548; Gram +
[14] = test system: Escherichia coli NIHJ JC-2; assay: Influence of liver homogenate on antibacterial activity; type: cell-based
Procedure: as §1

[15] = Concentrations in tissues after a single oral administration of 50 mg/kg in rats; settings: rat; for Tissue level, liver (free concentration): 50 mg/kg oral, mean ± S.E.
Procedure: Nutrient agar was heated and melted. Escherichia coli NIHJ JC-2 was added to melted agar, and well mixed, and 5 ml of the mixture was placed in Petri dish. Penicylinders were placed on the solidified agar, and the cylinder was filled with serum sample. The plate was placed in the incubator of 37° C. for 20 hours. The diameter of the inhibition zone was measured.
The tissue homogenates were prepared with 1:4 homogenates in M/15 phosphate buffer (pH 7.5).

With `CCn1cc(C(=O)O)c(=O)c2cc(F)c(N3CCNCC3)cc21` [Compound (II), 1-ethyl-6-fluoro-1,4-dihydro-7-(1-piperazinyl)-4-oxoquinoline-3-carboxylicacid] the MIC [1] was 0.05 µg/mL (≈ 0.157 µM), the “antibacterial activity (in words)” value [2] was “more active than nalidixic acid and pipemidic acid against both of gram-positive and gram-negative bacteria; also recorded: more active than gentamicin and carbenicillin against gram-negative bacteria including Pseudomonas aeruginosa; also recorded: inhibited even such bacteria those were not susceptible to nalidixic acid, pipemidic acid and carbenicillin” and the MIC [3] was 0.05 µg/mL (≈ 0.157 µM). For the same compound, the ED50 ([4]; Escherichia coli, NIHJJC2, 48 h, oral, 3 hours after inoculation, challenge 3.2 × 10^7 cells/mouse, read-out: ED50 (95% confidence limit)) was 15 mg/kg, the ED90 ([4]; Escherichia coli, NIHJJC2, 48 h, oral, 3 hours after inoculation, challenge 3.2 × 10^7 cells/mouse, read-out: ED90) was 61 mg/kg and the “effect against ascending kidney infection (in words)” value [4] was “more potent than nalidixic acid and pipemidic acid”. The “effect against ascending kidney infection (in words)” value ([4]; listed as EXAMPLE 2) was “effective against ascending kidney infection with Escherichia coli in mice”, the “effects on chromosome of myelocytes (in words)” value (chromosome of myelocytes) was “no effects of the test compound on chromosome of myelocytes were observed” and the MIC [5] was 0.2 µg/mL (≈ 0.626 µM). The “antibacterial activity in presence of bile (in words)” value [6] was “not influenced by bile of rats”, the “biliary levels and cumulative excretion (in words)” value [7] was “more excellent than those of nalidixic acid and pipemidic acid” and the concentration at 3 h [7] was 31000 ± 3500 ng/mL. It also gave a concentration at 6 h [7] of 26400 ± 3200 ng/mL, a concentration at 24 h [7] of 18900 ± 1600 ng/mL and a concentration at 27 h [7] of 6700 ± 900 ng/mL. For the same compound, the dose excreted at 3 h [7] was 0.6 ± 0.06%, the dose excreted at 6 h [7] was 1.02 ± 0.11% and the dose excreted at 24 h [7] was 2.43 ± 0.23%. For the same compound, the dose excreted at 27 h [7] was 2.5 ± 0.23%, the MIC (Sta. aureus ATCC 14775) was 1.56 µg/mL (≈ 4.89 µM) and the concentration at 3 h ([8]; 1.56 mg/kg oral) was 1360 ± 140 ng/mL. The concentration at 6 h ([8]; 1.56 mg/kg oral) was 930 ± 140 ng/mL, the concentration at 24 h ([8]; 1.56 mg/kg oral) was 170 ± 50 ng/mL and the concentration at 27 h ([8]; 1.56 mg/kg oral) was 40 ± 10 ng/mL. It also gave a concentration at 3 h ([8]; 3.13 mg/kg oral) of 3390 ± 550 ng/mL, a concentration at 6 h ([8]; 3.13 mg/kg oral) of 3780 ± 440 ng/mL and a concentration at 24 h ([8]; 3.13 mg/kg oral) of 580 ± 90 ng/mL. The concentration at 27 h ([8]; 3.13 mg/kg oral) was 30 ng/mL, the concentration at 3 h ([8]; 6.25 mg/kg oral) was 9690 ± 2300 ng/mL and the concentration at 6 h ([8]; 6.25 mg/kg oral) was 8080 ± 1500 ng/mL. For the same compound, the concentration at 24 h ([8]; 6.25 mg/kg oral) was 1360 ± 200 ng/mL, the concentration at 27 h ([8]; 6.25 mg/kg oral) was 40 ng/mL and the concentration at 3 h ([8]; 12.5 mg/kg oral) was 21900 ± 3600 ng/mL. The concentration at 6 h ([8]; 12.5 mg/kg oral) was 16800 ± 1600 ng/mL, the concentration at 24 h ([8]; 12.5 mg/kg oral) was 4000 ± 500 ng/mL and the concentration at 27 h ([8]; 12.5 mg/kg oral) was 60 ± 20 ng/mL. The concentration at 3 h ([8]; 25.0 mg/kg oral) was 56800 ± 11100 ng/mL, the concentration at 6 h ([8]; 25.0 mg/kg oral) was 46400 ± 3800 ng/mL and the concentration at 24 h ([8]; 25.0 mg/kg oral) was 13500 ± 3000 ng/mL. The concentration at 27 h ([8]; 25.0 mg/kg oral) was 1200 ± 500 ng/mL, the concentration at 3 h ([8]; 50.0 mg/kg oral) was 89300 ± 19500 ng/mL and the concentration at 6 h ([8]; 50.0 mg/kg oral) was 99200 ± 15900 ng/mL. It also gave a concentration at 24 h ([8]; 50.0 mg/kg oral) of 32200 ± 100 ng/mL, a concentration at 27 h ([8]; 50.0 mg/kg oral) of 3100 ± 900 ng/mL and a Tmax ([8]; oral, read-out: time of concentrations peak in urine) of 0 to 6 h. For the same compound, the MIC (Ps. aeruginosa IID 1210) was 1.56 µg/mL (≈ 4.89 µM), the MIC [9] was 0.39 µg/mL (≈ 1.22 µM) and the MIC (Escherichia coli NIHJ) was 0.1 µg/mL (≈ 0.313 µM). For the same compound, the MIC [10] was 0.39 µg/mL (≈ 1.22 µM), the MIC [11] was 3.13 µg/mL (≈ 9.8 µM) and the MIC [12] was 0.39 µg/mL (≈ 1.22 µM). For the same compound, the MIC [13] was 3.13 µg/mL, the “antibacterial activity in presence of liver homogenate (in words)” value [14] was “decreased by liver and kidney homogenate” and the “Tissue level, liver (free concentration)” value ([15]; 0.5 hrs.) was 4.1 ± 0.9 µg/g. For the same compound, the “Tissue level, liver (free concentration)” value ([15]; 1 hr.) was 3.7 ± 0.6 µg/g, the “Tissue level, liver (free concentration)” value ([15]; 2 hrs.) was 2.5 ± 0.5 µg/g and the “Tissue level, liver (free concentration)” value ([15]; 4 hrs.) was 1.2 ± 0.2 µg/g. For the same compound, the “Tissue level, liver (free concentration)” value ([15]; 6 hrs.) was 0.7 ± 0.1 µg/g, the concentration at 0.5 h ([15]; liver, po, 50 mg/kg) was 9000 ± 1900 ng/g and the concentration at 1 h ([15]; liver, po, 50 mg/kg) was 7900 ± 1200 ng/g. The concentration at 2 h ([15]; liver, po, 50 mg/kg) was 5400 ± 1000 ng/g, the concentration at 4 h ([15]; liver, po, 50 mg/kg) was 2600 ± 400 ng/g and the concentration at 6 h ([15]; liver, po, 50 mg/kg) was 1500 ± 200 ng/g.
